Laboratory results taken from patent US20170173002A1, “Compositions and Methods for Treating an Infection” (CMPD LICENSING, LLC, priority 2015, published 2017).

What was measured:
Histoplasma duboisii = details: expected efficacy against Histoplasma duboisii
[1] = tested on: Trichophyton mentagrophytes; experiment: Expected efficacy of antifungal agents; details: expected efficacy against Trichophyton mentagrophytes
Sporothrix schenckii = experiment: Expected efficacy of antifungal agents; details: expected efficacy against Sporothrix schenckii
Aspergillus flavus = experiment: Expected efficacy of antifungal agents; details: expected efficacy against Aspergillus flavus
Blastomyces dermatitidis = experiment: Expected efficacy of antifungal agents; details: expected efficacy against Blastomyces dermatitidis
[2] = tested on: Paracoccidioides brasiliensis; experiment: Expected efficacy of antifungal agents; details: expected efficacy against Paracoccidioides brasiliensis
Coccidioides immitis = details: expected efficacy against Coccidioides immitis
Candida species = experiment: Expected efficacy of antifungal agents; details: expected efficacy against Candida species
Cryptococcus neoformans = experiment: Expected efficacy of antifungal agents; details: expected efficacy against Cryptococcus neoformans
Aspergillus fumigatus = experiment: Expected efficacy of antifungal agents; details: expected efficacy against Aspergillus fumigatus
Trichophyton rubrum = experiment: Expected efficacy of antifungal agents; details: expected efficacy against Trichophyton rubrum
Aspergillus niger = experiment: Expected efficacy of antifungal agents; details: expected efficacy against Aspergillus niger
Scedosporium apiospermum = experiment: Expected efficacy of antifungal agents; details: expected efficacy against Scedosporium apiospermum
Fusarium species = experiment: Expected efficacy of antifungal agents; details: expected efficacy against Fusarium species
Aspergillus terreus = experiment: Expected efficacy of antifungal agents; details: expected efficacy against Aspergillus terreus

Measured: Efficacy

CCC(C)n1ncn(-c2ccc(N3CCN(c4ccc(OC[C@H]5CO[C@](Cn6cncn6)(c6ccc(Cl)cc6Cl)O5)cc4)CC3)cc2)c1=O (mixture of isomers) [Itraconazole]
not listed: Aspergillus niger | Scedosporium apiospermum | Fusarium species | Aspergillus terreus
yes: all other assays above

C[C@@H](c1ncncc1F)[C@](O)(Cn1cncn1)c1ccc(F)cc1F [Voriconazole, voriconazole]
yes: Aspergillus niger | Aspergillus flavus | Scedosporium apiospermum | Fusarium species | Candida species | Aspergillus terreus | Aspergillus fumigatus
